Reference: patent publication US12678403B2, “Pharmaceutical composition for preventing or treating obesity or non-alcoholic fatty liver containing Polygalin C as active ingredient” (UNIVERSITY-INDUSTRY COOPERATION GROUP OF KYUNG HEE …, priority 2021, dated 2026)

Experiments:
SREBP1c [1] = assay: Western blotting, SREBP1c protein in 3T3-L1 adipocytes; assay type: cell-based, mouse; settings: dose-dependently, vs fully differentiated adipocytes
Experimental: (§1) 3T3-L1 cells were inoculated into a 6-well plate in a density of 8×10^4 cells/well, and the medium was replaced until the confluence is satisfied. For differentiation, cells were incubated in differentiation media (0.5 mM IBMX, 0.5 μM dexamethasone, and 1 μg/mL insulin). The medium was then replaced with a maintenance culture including 1 μg/mL insulin and PC (0-50 μM) once every 2 days.
(§2) Cell lysis buffer (Cell Signaling Technology) was used to lyse cells. The reagent for Bio-Rad protein assay was used to measure protein concentrations for Bradford assay. Each sample was separated by sodium dodecyl sulfate polyacrylamide gel electrophoresis using 8% acrylamide gel and then electrotransferred to a nitrocellulose membrane. The membrane was blocked with 3% bovine serum albumin (BSA) in Tris buffered saline/Tween 20 (TBS-T) at 4° C. for 1 hour and incubated overnight at 4° C. with COX-2, C/EBPα, PPARγ, SREBP1c, FAS, p-ACC, t-ACC, p-AMPK, t-AMPK (1:2000), and β-actin (1:10,000) antibodies. The membrane was extensively washed with TBS-T at 3 or more times for 30 minutes and incubated with goat anti-rabbit IgG-horseradish peroxidase (HRP) and goat anti-mouse IgG-HRP (1:10,000 all in TBS-T) secondary antibodies for 1 hour. […]

C/EBPδ = assay: Real-time PCR, C/EBPδ mRNA in 3T3-L1 adipocytes; assay type: cell-based, mouse; settings: vs adipocytes
Experimental: as §1
(§3) Cells were treated with Ribo-Ex to extract RNA using GeneAll Hybrid-R RNA purification kit (GeneAll, Seoul, Korea). RNA was quantified using NanoDrop (Thermo Fisher Scientific). Amplification of complementary DNA was performed at 45° C. for 60 minutes and 95° C. for 15 minutes using a Maxime RT premix (iNtRON Biotechnology, South Korea). Real-time quantitative PCR was performed using the Universal SYBR Green Master Mix (Applied Biosystems, Foster City, CA, USA). Real-time PCR was performed on Applied Biosystems StepOne System (Applied Biosystems). In this study, relative target gene expression was quantified relatively to gene expression of glyceraldehyde 3-phosphate dehydrogenase to determine mRNA expression levels.
(§4) In order to additionally identify expression of other adipose tissue generation markers such as C/EBPβ and C/EBPδ, mRNA levels of these markers were examined.

FAS [2] = assay: Western blotting, FAS protein in 3T3-L1 adipocytes; assay type: cell-based, mouse; settings: dose-dependently, vs fully differentiated adipocytes
Experimental: as §1, §2

3T3-L1 cells [3] = assay: MTT assay, cytotoxicity of PC in 3T3-L1 cells; assay type: cell-based, mouse; settings: 0-100 μM PC, 48 hours
Experimental: 3T3-L1 preadipocytes were inoculated into a 96-well cell culture plate by 1×10^4 cells/well and incubated overnight. The medium was then replaced with DMEM including different concentrations of PC (0, 5, 10, 25, 50, 75, and 100 μM) for 48 hours.
(§5) After PC treatment, cells were incubated with MTT solution (0.5 mg/ml dissolved in PBS) for 2 hours. After incubation, the medium in each well was removed, and dimethyl sulfoxide was added to dissolve the precipitated formazan. When formazan was completely dissolved, the absorbance was measured at 540 nm using a microplate reader (Bio-Rad) to determine cell viability.
In order to identify cytotoxicity of PC in 3T3-L1 cells, various concentrations of PC (0, 5, 10, 25, 50, 75, and 100 μM) were treated for 48 hours, and then cell viability was determined using MTT assay.

COX-2 = assay: Western blotting, COX-2 in NEFA-induced fatty liver HepG2 cells; assay type: cell-based, human; settings: NEFA-treated HepG2 cells
Experimental: (§6) HepG2 cells were inoculated into a 6-well plate in a density of 3×10^5 cells/well and incubated for one day. Then, for fatty liver induction, an FBS-free RPMI medium supplemented with 1% bovine serum albumin (BSA) and NEFA (0.66 mM oleic acid and 0.33 mM palmitic acid) was treated, followed by incubation for 24 hours. When treated with PC (0-50 μM), fatty liver induction medium was treated together for incubation for 24 hours.
(§7) Cell lysis buffer (Cell Signaling Technology) was used to lyse cells. The reagent for Bio-Rad protein assay was used to measure protein concentrations for Bradford assay. Each sample was separated by sodium dodecyl sulfate polyacrylamide gel electrophoresis using 8% acrylamide gel and then electrotransferred to a nitrocellulose membrane. The membrane was blocked with 3% bovine serum albumin (BSA) in Tris buffered saline/Tween 20 (TBS-T) at 4° C. for 1 hour and incubated overnight at 4° C. with COX-2, C/EBPα, PPARγ, SREBP1c, FAS, p-ACC, t-ACC, p-AMPK, t-AMPK (1:2000), and β-actin (1:10,000) antibodies. The membrane was extensively washed with TBS-T at 3 or more times for 30 minutes and incubated with goat anti-rabbit IgG-horseradish peroxidase (HRP) and goat anti-mouse IgG-HRP (1:10,000 all in TBS-T) secondary antibodies for 1 hour.
It is known that if the symptoms persist in the fatty liver stage, it causes an inflammatory reaction to develop steatohepatitis. […]

SREBP1c [4] = assay: Immunofluorescence analysis, SREBP1c in MDI-induced adipocytes; assay type: cell-based, mouse
Experimental: The cells were treated with or without PC in a 4-well confocal dish. After treatment, the cells were fixed with 10% formalin for 10 minutes, treated with 0.2% Triton X diluted in PBS for 20 minutes, washed with PBS 3 times, and blocked with 5% BSA dissolved in PBS for 1 hour. Next, cells were incubated overnight in the presence of anti-SREBP1 antibodies (1:500 in PBS) at 4° C., followed by incubation in the presence of Alexa Fluor-555 antibody for 1 hour at room temperature. The cell nucleus was stained with 4,6-diamidino-2-phenylindole (DAPI: Sigma-Aldrich) at room temperature for 3 minutes. DAPI-stained cells were washed with PBS for 30 minutes, and fluorescence was observed using CELENA™ S Digital Imaging System (Logos Biosystems, Inc.).
In order to determine whether the PC inhibits the adipogenic factors, the degree of expression of the adipogenic factors was examined through Western blotting and real-time PCR. FAS and SREBP1 play an important role in adipogenesis, protein expression levels of which were investigated. […] In addition, according to FIGS. 3B and 3C, the RNA level was reduced compared to fully differentiated adipocytes.

HepG2 cells [5] = assay: Oil Red O staining, fat accumulation in fatty liver-induced HepG2 cells; assay type: cell-based, human; settings: PC 0, 25, 50 μM, vs cells solely treated with NEFA
Experimental: as §6
(§8) The treated cells were washed with PBS and fixed with 10% formalin for 1 hour. The cells were then washed with 60% isopropanol and dried completely. A 60% Oil Red O working solution diluted in distilled water (DW) was added to the cells. In the case of hepatocytes, in order to observe the morphology of the cells, they were additionally treated with hematoxylin for 1 minute for staining. The stained cells were washed with DW 3 times and photographed using the Olympus IX71 microscope (Olympus, Tokyo, Japan). To quantify lipid accumulation, stained cells were dissolved in 100% isopropanol, and measurement was performed at 490 nm with a microplate reader (Bio-Rad).
To investigate whether PC has an inhibitory effect on fat accumulation, cells were treated in the presence and absence of PC at various concentrations (0, 25, and 50 μM), using Oil red O staining. […] Thus, PC reduced accumulation of lipid in fatty liver-induced HepG2 cells.

PPARγ [6] = assay: Western blotting, PPARγ protein in MDI-induced 3T3-L1 adipocytes; assay type: cell-based, mouse; settings: vs MDI-induced group
Experimental: as §1, §7
(§9) To investigate how PC inhibits adipose tissue generation in 3T3-L1 cells, investigation was performed on protein expression levels of key adipose tissue generation markers. […]

HepG2 cells [7] = assay: MTT assay, cell viability in NEFA-treated fatty liver-induced HepG2 cell model; assay type: cell-based, human; settings: 1 mM NEFA with 50 µM PC, 24 hours
Experimental: as §6
(§10) HepG2 hepatocytes were inoculated into a 96-well cell culture plate by 1×10^4 cells/well and incubated overnight. Then, for 24 hours, they were replaced with fatty liver induction media including different concentrations of PC (0, 5, 10, 25, 50, and 100 μM).
as §5
To determine the preventive and therapeutic effects of PC in fatty liver-induced cell models, treatment of 1 mM NEFA as well as various concentrations of PC (0, 5, 10, 25, 50 μM) were performed for 24 hours, and then MTT assay was used to determine cell viability.

PPARγ [8] = assay: Real-time PCR, PPARγ mRNA in 3T3-L1 adipocytes; assay type: cell-based, mouse; settings: vs fully differentiated adipocytes
Experimental: as §1, §3
(§11) To investigate how PC inhibits adipose tissue generation in 3T3-L1 cells, investigation was performed on protein expression levels of key adipose tissue generation markers. C/EBPα and PPARγ are well-known major transcription factors in adipose tissue generation. […]

MAPK kinase = assay: Western blotting, activated MAPK kinase in MDI-induced adipocytes; assay type: cell-based, mouse; settings: MDI-induced adipocytes (ERK, JNK, p38)
Experimental: as §1, §7
(§12) Next, MAPK and Akt signaling in adipocytes in the presence of PC were investigated by Western Blotting.

SREBP1c [9] = assay: Real-time PCR, SREBP1c RNA in 3T3-L1 adipocytes; assay type: cell-based, mouse; settings: vs fully differentiated adipocytes
Experimental: as §1, §3
(§13) In order to determine whether the PC inhibits the adipogenic factors, the degree of expression of the adipogenic factors was examined through Western blotting and real-time PCR. FAS and SREBP1 play an important role in adipogenesis, protein expression levels of which were investigated. […]

C/EBPα [10] = assay: Real-time PCR, C/EBPα mRNA in 3T3-L1 adipocytes; assay type: cell-based, mouse; settings: vs fully differentiated adipocytes
Experimental: as §1, §3, §11

C/EBPα [11] = assay: Western blotting, C/EBPα protein in MDI-induced 3T3-L1 adipocytes; assay type: cell-based, mouse; settings: vs MDI-induced group
Experimental: as §1, §7, §9

HepG2 cells [12] = assay: MTT assay, cytotoxicity of PC and NEFA in HepG2 cells; assay type: cell-based, human; settings: 0-100 μM PC, 24 hours
Experimental: as §10, §5
In order to identify cytotoxicity of PC and NEFA in HepG2 cells, various concentrations of PC (0, 5, 10, 25, 50, and 100 μM) or NEFA (0, 0.5, 1, and 2 mM) were treated for 24 hours, and then MTT assay was used to determine cell viability.

C/EBPβ = assay: Real-time PCR, C/EBPβ mRNA in 3T3-L1 adipocytes; assay type: cell-based, mouse; settings: vs adipocytes
Experimental: as §1, §3, §4

3T3-L1 cells [13] = assay: Oil Red O staining, adipocyte differentiation / lipid accumulation in 3T3-L1 preadipocytes; assay type: cell-based, mouse; settings: 3T3-L1 cells differentiated with PC 0, 25, 50 μM; vs fully differentiated adipocytes
Experimental: as §1, §8
To investigate whether PC has an inhibitory effect on adipose tissue differentiation, cells were differentiated in the presence and absence of PC at various concentrations (0, 25, and 50 μM), and then Oil red O staining was used. […] Thus, PC reduced accumulation of lipids in 3T3-L1 cells during adipose tissue generation differentiation.

ACC1 = assay: Western blotting, ACC1 in NEFA-induced fatty liver HepG2 cells; assay type: cell-based, human; settings: dose-dependently, vs NEFA-induced fatty liver cells
Experimental: as §6, §7
(§14) Due to treatment of free fatty acids such as NEFA, fatty liver is induced by fat accumulation. […]

FAS [14] = assay: Western blotting, FAS in NEFA-induced fatty liver HepG2 cells; assay type: cell-based, human; settings: dose-dependently, vs NEFA-induced fatty liver cells
Experimental: as §6, §7, §14

ACC = assay: Western blotting, ACC phosphorylation in 3T3-L1 adipocytes; assay type: cell-based, mouse
Experimental: as §1, §7
(§15) The MAPK/Akt and AMPK/ACC signaling pathways are involved in the general steps of adipose tissue generation. […]

AMPK = assay: Western blotting, AMPK phosphorylation in 3T3-L1 adipocytes; assay type: cell-based, mouse
Experimental: as §1, §7, §15

FAS [15] = assay: Real-time PCR, FAS RNA in 3T3-L1 adipocytes; assay type: cell-based, mouse; settings: vs fully differentiated adipocytes
Experimental: as §1, §3, §13

Akt = assay: Western blotting, activated Akt in MDI-induced adipocytes; assay type: cell-based, mouse
Experimental: as §1, §7, §12

[16] = PC treatment, 3T3-L1 adipocytes
[17] = vs fully differentiated adipocytes

Polygalin C [PC]
protein expression level of SREBP1c (SREBP1c [1]): significantly reduced | mRNA level of C/EBPδ (C/EBPδ): decreased concentration-dependently | protein expression level of FAS (FAS [2]): significantly reduced | concentration with non-toxic effect (cell viability, MTT) (3T3-L1 cells [3]): up to 50 μM | expression of COX-2 induced by NEFA treatment (COX-2): reduced concentration-dependently | MDI-induced SREBP1c expression (immunofluorescence) (SREBP1c [4]): significant relieving effect | production of lipid droplets (Oil red O) (HepG2 cells [5]): dose-dependently inhibited | relative protein level of PPARγ (PPARγ [6]): decreased dose-dependently | cell viability (MTT) in NEFA-treated cells (HepG2 cells [7]): cell viability was restored | mRNA expression level of PPARγ (PPARγ [8]): reduced | expression level of activated MAPK kinase (MAPK kinase): significantly reduced dose-dependently | RNA level of SREBP1c (SREBP1c [9]): reduced | mRNA expression level of C/EBPα (C/EBPα [10]): reduced | relative protein level of C/EBPα (C/EBPα [11]): decreased dose-dependently | concentration with non-toxic effect (cell viability, MTT) (HepG2 cells [12]): up to 100 μM | mRNA level of C/EBPβ (C/EBPβ): decreased concentration-dependently | production of lipid droplets (Oil red O) (3T3-L1 cells [13]): dose-dependently inhibited | expression level of ACC1 (ACC1): significantly reduced | expression level of FAS (FAS [14]): significantly reduced | total ACC expression level (ACC; [16]): unchanged | phosphorylation of ACC (ACC; [17]): significantly increased | total AMPK expression level (AMPK; [16]): unchanged | phosphorylation of AMPK (AMPK; [17]): significantly increased | RNA level of FAS (FAS [15]): reduced | expression level of activated Akt (Akt): significantly reduced dose-dependently
